The target in data set [1] is T1, CYP1A2 (Homo sapiens, UniProt P05177).
T1 sequence (P05177 whole entry): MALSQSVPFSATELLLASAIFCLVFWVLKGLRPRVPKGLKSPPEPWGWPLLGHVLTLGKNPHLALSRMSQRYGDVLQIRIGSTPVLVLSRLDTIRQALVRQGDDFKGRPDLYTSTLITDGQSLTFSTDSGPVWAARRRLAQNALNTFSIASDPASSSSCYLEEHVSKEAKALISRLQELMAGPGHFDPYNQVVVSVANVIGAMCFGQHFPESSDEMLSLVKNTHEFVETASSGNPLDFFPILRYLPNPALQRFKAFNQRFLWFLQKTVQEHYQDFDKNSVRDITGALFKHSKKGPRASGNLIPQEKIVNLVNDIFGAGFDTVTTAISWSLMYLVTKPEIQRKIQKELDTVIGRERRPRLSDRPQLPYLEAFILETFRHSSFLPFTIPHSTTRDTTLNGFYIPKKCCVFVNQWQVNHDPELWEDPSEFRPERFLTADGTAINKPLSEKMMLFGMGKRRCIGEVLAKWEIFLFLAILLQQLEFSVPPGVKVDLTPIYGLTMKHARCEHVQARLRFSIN
Nature of the data set: Inhibition of recombinant human CYP1A2 expressed in insect cells at <10 uM using EOMCC as substrate pretreated for 10 mins followed by substrate addition measured every minute for 15 mins in presence of NADP+ by fluorescence assay relative to control. The format is ADME. The following applies: probe EOMCC.

The next data set deals with Cytochrome P450 3A4 (Homo sapiens, UniProt P08684). Nature of the data set: Inhibition of recombinant human CYP3A4 expressed in insect cells using DBOMF as substrate pretreated for 10 mins followed by substrate addition measured every minute for 15 mins in presence of NADP+ by fluorescence assay. Type of data set: ADME.
For the next data set, the target named is T2, Cytochrome P450 1A2 (Homo sapiens, UniProt P05177).
T2 sequence (P05177 whole entry): T1 sequence (P05177 whole entry)
Nature of the data set: Inhibition of recombinant human CYP1A2 expressed in insect cells using EOMCC as substrate pretreated for 10 mins followed by substrate addition measured every minute for 15 mins in presence of NADP+ by fluorescence assay. Type of data set: ADME.

Data set [2] concerns the target T3, CYP3A4 (Homo sapiens, UniProt P08684). The experiment in a line: Inhibition of recombinant human CYP3A4 expressed in insect cells at 100 uM using DBOMF as substrate pretreated for 10 mins followed by substrate addition measured every minute for 15 mins in presence of NADP+ by fluorescence assay relative to control. Type of data set: ADME. The following applies: probe DBOMF.

The target of data set [3] is T1, CYP1A2. The experiment in a line: Inhibition of recombinant human CYP1A2 expressed in insect cells at 10 uM using EOMCC as substrate pretreated for 10 mins followed by substrate addition measured every minute for 15 mins in presence of NADP+ by fluorescence assay relative to control. Conditions: probe EOMCC.
Data set [4] concerns the target T1, CYP1A2. Nature of the data set: Inhibition of recombinant human CYP1A2 expressed in insect cells at 0.01 uM using EOMCC as substrate pretreated for 10 mins followed by substrate addition measured every minute for 15 mins in presence of NADP+ by fluorescence assay relative to control. The following applies: probe EOMCC.
For data set [5], the target named is T1, CYP1A2. Nature of the data set: Inhibition of recombinant human CYP1A2 expressed in insect cells at 20 uM using EOMCC as substrate pretreated for 10 mins followed by substrate addition measured every minute for 15 mins in presence of NADP+ by fluorescence assay relative to control. The following applies: probe EOMCC.
In data set [6] the target is T1, CYP1A2. The experiment in a line: Inhibition of recombinant human CYP1A2 expressed in insect cells at 1 uM using EOMCC as substrate pretreated for 10 mins followed by substrate addition measured every minute for 15 mins in presence of NADP+ by fluorescence assay relative to control. Conditions: probe EOMCC.
Data set [7] has as its target T3, CYP3A4. The experiment in a line: Inhibition of recombinant human CYP3A4 expressed in insect cells at >= 1 uM using DBOMF as substrate pretreated for 10 mins followed by substrate addition measured every minute for 15 mins in presence of NADP+ by fluorescence assay relative to control. Conditions: probe DBOMF.
The target of data set [8] is T1, CYP1A2. Nature of the data set: Inhibition of recombinant human CYP1A2 expressed in insect cells at >1 uM using EOMCC as substrate pretreated for 10 mins followed by substrate addition measured every minute for 15 mins in presence of NADP+ by fluorescence assay relative to control. The format is ADME. The following applies: probe EOMCC.

T3 sequence (P08684 whole entry): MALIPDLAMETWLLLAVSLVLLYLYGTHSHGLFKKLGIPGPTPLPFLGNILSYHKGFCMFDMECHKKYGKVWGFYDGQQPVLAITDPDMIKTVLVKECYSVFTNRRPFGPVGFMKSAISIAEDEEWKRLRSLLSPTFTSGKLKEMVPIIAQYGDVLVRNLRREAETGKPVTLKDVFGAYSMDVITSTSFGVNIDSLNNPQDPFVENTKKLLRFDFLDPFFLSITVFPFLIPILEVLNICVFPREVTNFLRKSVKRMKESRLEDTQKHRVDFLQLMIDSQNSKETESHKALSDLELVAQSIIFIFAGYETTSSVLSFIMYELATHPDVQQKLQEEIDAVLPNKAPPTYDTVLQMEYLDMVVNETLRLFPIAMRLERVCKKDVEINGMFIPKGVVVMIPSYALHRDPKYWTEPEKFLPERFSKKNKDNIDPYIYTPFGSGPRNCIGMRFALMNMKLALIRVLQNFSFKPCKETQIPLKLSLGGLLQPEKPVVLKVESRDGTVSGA
Cytochrome P450 3A4, sequence (P08684 whole entry): as above

For the compound `COc1ccc(CNc2c3c(nc4ccccc24)CCCC3)cc1OC`, the inhibition at 0.25 h at CYP1A2 [1] is less than 50%. Further, the values for the IC50 on Cytochrome P450 3A4 and on Cytochrome P450 1A2 were 3.7 µM and 33 µM, respectively. In addition, the inhibition at 0.25 h, 100 µM on CYP3A4 [2] worked out at 90%.
As for `Nc1c2c(nc3ccccc13)CCCC2` [TACRINE], the inhibition at 0.25 h, 10 µM on CYP1A2 [3] turned out to be 75%. Moreover, the inhibition at 0.25 h, 0.01 µM at CYP1A2 [4] worked out at 14%. Moreover, the inhibition at 0.25 h, 20 µM on CYP1A2 [5] was determined as 75%. In addition, on CYP1A2 [6], the inhibition at 0.25 h, 1 µM is 45%. At Cytochrome P450 1A2, the 50% inhibitory concentration (IC50) came out at 1.5 µM. Further, the inhibition at 0.25 h, 100 µM on CYP3A4 [2] was determined as 55%.
Regarding `CC(=O)N1CCN(c2ccc(OCC3COC(Cn4ccnc4)(c4ccc(Cl)cc4Cl)O3)cc2)CC1` (configuration not stated) [KETOCONAZOLE], the inhibition at 0.25 h at CYP3A4 [7] was greater than 85%.
Consider `O=c1cc(-c2ccccc2)oc2c1ccc1ccccc12` [ALPHA-NAPHTHOFLAVONE], for which the inhibition at 0.25 h, 1 µM at CYP1A2 [6] was greater than 80%.
As to `COc1ccc(CNc2c3c(nc4cc(Cl)ccc24)CCCC3)cc1OC`, at CYP1A2 [1], the inhibition at 0.25 h is less than 50%. The figures for the half-maximal inhibitory concentration (IC50) on Cytochrome P450 3A4 and at Cytochrome P450 1A2 were 13.8 µM and 8.5 µM, respectively. Further, the inhibition at 0.25 h, 100 µM on CYP3A4 [2] stood at 90%.
Take `Clc1ccc2c(NCc3ccccn3)c3c(nc2c1)CCCC3`: the results for the 50% inhibitory concentration (IC50) on Cytochrome P450 3A4 and at Cytochrome P450 1A2 were 9.1 µM and 0.24 µM, respectively. Besides, on CYP1A2 [8], the inhibition at 0.25 h was greater than 80%. For the same compound, the inhibition at 0.25 h, 100 µM on CYP3A4 [2] was found to be 90%.
For `COc1ccc(CCNc2c3c(nc4cc(Cl)ccc24)CCCC3)cc1OC`, at CYP1A2 [1], the inhibition at 0.25 h is less than 50%. The half-inhibitory concentration (IC50) on Cytochrome P450 1A2 is 22.3 µM.

The record behind these values is ChEMBL document CHEMBL4017465 (Bioorg Med Chem Lett, 2017).
